Experimental data taken from patent US11013780B2, “Methods of treating female infertility” (Myovant Sciences GmbH, priority 2016, dated 2021).
Read-outs that look alike come from different tables or passages of the source. Where a SMILES comes first, the peptide text is derived from it. [ ]: non-standard residue; d: D form. Arg(Me) = CNC(=N)NCCC[C@H](N)C(=O)O; Hyp = O=C(O)[C@@H]1C[C@@H](O)CN1; azaGly = NNC(=O)O

Experiments:
[1] = Pharmacokinetics in monkeys after SC and IV administration; details: monkey, in vivo, monkeys; for AUC(0-t): read-out: AUC(0-24); for bioavailability: read-out: BA (bioavailability); for Cmax: read-out: Cmax
Excerpt: The PK of API-MA was studied in monkeys after SC and IV administration.

serum LH and FSH = experiment: Single dose pharmacodynamics (LH, FSH), European men; type: in vivo, human
Procedure: Another study was a single dose, phase 1 clinical study of API-MA in healthy men age 50 to 76 years. Subjects enrolled in the first […] cohorts received 0.001, 0.003, 0.01, 0.03, 0.1 or 0.3 mg of API-MA or placebo by single SC bolus. Subjects enrolled in the seventh, eighth, and ninth cohorts received 1, 3, or 6 mg of API-MA or placebo by single 2-hour SC infusion. The pharmacodynamics of each of the following hormones was assessed: LH and FSH. PRL, TSH, cortisol, sex hormone binding globulin (SHBG), and plasma ACTH (also known as corticotropin) concentrations were measured on the day prior to dosing and on day 4, the Final Visit. To measure serum concentrations of LH and FSH in the bolus cohorts, blood specimens were collected at the following nominal times: the day prior to dosing, predose, and 0.083, 0.25, 0.75, 1, 2, 3, 4, 6, 8, 12, 16, 24, 36, 48 and 72 hours postdose. In the infusion cohorts, blood specimens were collected at the following nominal times: the day prior to dosing, predose or start of the infusion, and 0.5, 1, 1.5, 2 (end of infusion), 2.25, 2.5, 3, 4, 6, 8, 10, 14, 18, 26, 50 and 74 hours after the start of infusion. Serum LH concentrations increased after a single SC bolus of API-MA, as well as after a single 2-hour SC infusion of API-MA. The concentrations peaked between 6 and 12 hours and returned to baseline by 72 hours. The magnitudes and durations of the LH concentration increases were similar across the dose range, 0.001 to 6 mg.

[2] = Pharmacokinetics in dogs after SC and IV administration; details: dog, in vivo, dogs; for AUC(0-t): read-out: AUC(0-24); for Cmax: read-out: Cmax; for bioavailability: read-out: BA (bioavailability)
Excerpt: The PK of API-MA was studied in dogs after SC and IV administration.

rat KISS1R = biological target: T1, rat KISS1R (Rattus norvegicus, UniProt Q924U1); experiment: Intracellular Ca2+ mobilization (fluorometric imaging plate reader), rat KISS1R; type: cell-based
T1 construct: expressed in transfected cells; host or cells: Chinese hamster ovary dihydrofolate reductase negative cells
Procedure: The effects of API-MA on intracellular Ca^2+ mobilization in KISS1R-expressing recombinant cells were evaluated by performing the fluorometric imaging plate reader assay.

[3] = Multiple-dose PK, 2-hour SC infusion once daily for 14 days, Japanese prostate cancer patients; type: in vivo, human; details: for half-life / Cmax / Tmax / AUC / Vd/F / AUC(0-inf) / MRT: male, human, in vivo; for AUC: read-out: AUC (0-tau); for Vd/F: read-out: Vz/F
Procedure: It was an open-label, ascending dose study of API-MA administered via 2-hour SC infusion once daily for 14 days that was expected to suppress testosterone in Japanese hormone-naïve prostate cancer patients. Six patients received API-MA at doses of 0.5 mg (3 patients) and 1.0 mg (3 patients) a day for 14 days.
To measure plasma concentrations of API-MA, blood specimens were collected at the following times: Day 1 (predose and 2, 4, 6, 10 hours postdose); days 2, 4, 6, 8, 10, and 12 (predose); day 14 (predose and 2, 4, 6, 10, 24, 48 hours postdose); day 21; and day 28. To measure urinary excretion of API-MA, urine specimens were collected at the following times: Day 1 (predose and 0 to 4, 4 to 8, 8 to 12, 12 to 24 hours postdose) and day 14 (0 to 4, 4 to 8, 8 to 12, 12 to 24 hours postdose).

[4] = Pharmacokinetics in rats after SC and IV administration; details: rat, in vivo, rats; for AUC(0-t): read-out: AUC(0-24); for level at 5 min: read-out: C5min; for Cmax: read-out: Cmax
Procedure: The PK of API-MA was studied in rats after SC and IV administration.
The PK linearity of API-MA was also investigated in rats after IV administration. The plasma C5min and AUC(0-24) values increased dose-proportionally. […] The elimination T1/2 values were 0.4 hours at 0.01 and 0.1 mg/kg and 0.5 hours at 1 mg/kg. These findings indicate that the PK of API-FB was linear in rats after single IV administration over the dose range of 0.01 to 1 mg/kg. The greater than dose-proportional increase in the first-pass kinetics with SC administration would indicate nonlinear PK in rats after SC administration.

[5] = IV 1 mg/kg, read-out: T½ γ (elimination) (converted)
[6] = SC 0.1 to 10 mg/kg, read-out: Tmax, range over the tested SC doses
[7] = bolus IV 1 mg/kg, read-out: Cmax (C5 min)
[8] = Japanese prostate cancer patients, 2-hour SC infusion 0.5 mg/day, Day 1, mean
[9] = Japanese prostate cancer patients, 2-hour SC infusion 0.5 mg/day, Day 14, mean
[10] = Japanese prostate cancer patients, 2-hour SC infusion 1.0 mg/day, Day 1, mean
[11] = Japanese prostate cancer patients, 2-hour SC infusion 1.0 mg/day, Day 14, mean
[12] = sc, 0.5 mg/day, Japanese prostate cancer patients, 2-hour SC infusion 0.5 mg/day, Day 1, mean
[13] = sc, 0.5 mg/day, Japanese prostate cancer patients, 2-hour SC infusion 0.5 mg/day, Day 14, mean
[14] = sc, 1 mg/day, Japanese prostate cancer patients, 2-hour SC infusion 1.0 mg/day, Day 1, mean
[15] = sc, 1 mg/day, Japanese prostate cancer patients, 2-hour SC infusion 1.0 mg/day, Day 14, mean

T1 sequence (Q924U1 whole entry): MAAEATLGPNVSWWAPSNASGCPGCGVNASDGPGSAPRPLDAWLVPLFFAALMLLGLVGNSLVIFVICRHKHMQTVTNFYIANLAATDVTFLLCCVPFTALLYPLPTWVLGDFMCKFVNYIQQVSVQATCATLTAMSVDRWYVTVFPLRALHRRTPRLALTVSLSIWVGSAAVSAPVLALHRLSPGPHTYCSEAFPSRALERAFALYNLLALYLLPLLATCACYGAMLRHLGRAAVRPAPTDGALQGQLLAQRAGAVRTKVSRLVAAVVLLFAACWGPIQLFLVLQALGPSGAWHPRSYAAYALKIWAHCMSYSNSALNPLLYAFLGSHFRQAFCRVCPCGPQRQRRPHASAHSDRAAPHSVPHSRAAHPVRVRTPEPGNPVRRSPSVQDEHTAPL

CC(=O)O.CNC(=N)NCCC[C@H](NC(=O)[C@H](CC(C)C)NC(=O)NNC(=O)[C@H](Cc1ccccc1)NC(=O)[C@@H](NC(=O)[C@H](CC(N)=O)NC(=O)[C@@H]1C[C@@H](O)CN1C(=O)[C@@H](Cc1ccc(O)cc1)NC(C)=O)[C@@H](C)O)C(=O)N[C@@H](Cc1c[nH]c2ccccc12)C(N)=O [API-MA, 2-(N-Acetyl-D-tyrosyl-trans-4-hydroxy-L-prolyl-Lasparaginyl-L-threonyl-L-phenylalanyl)-hydrazinocarbonyl-L-leucyl-Nω-methyl-L-arginyl-L-tryptophanamide monoacetate] (Ac-[dY][Hyp]NTF[azaGly]L[Arg(Me)]W-NH2)
AUC(0-t) ([1]; IV 1 mg/kg): 3160 ng·h/mL
half-life [1, 5]: 3.2 h
AUC(0-t) ([1]; SC 0.1 mg/kg): 295 ng·h/mL
bioavailability ([1]; SC 0.1 mg/kg): 94.9%
Cmax ([1]; SC 0.1 mg/kg): 123 ng/mL
AUC(0-t) ([1]; SC 1 mg/kg): 2790 ng·h/mL
bioavailability ([1]; SC 1 mg/kg): 90.1%
Cmax ([1]; SC 1 mg/kg): 1320 ng/mL
AUC(0-t) ([1]; SC 10 mg/kg): 31600 ng·h/mL
bioavailability ([1]; SC 10 mg/kg): 102%
Cmax ([1]; SC 10 mg/kg): 12100 ng/mL
Tmax [1, 6]: 0.3 to 0.4 h
Cmax at 5 min [1, 7]: 5030 ng/mL
half-life ([1]; multi-exponential decline after reaching Cmax, read-out: Mean terminal elimination T1/2 (converted)): ~2.6 h
Changes in serum SHBG, prolactin, TSH, corticotropin, cortisol (serum LH and FSH; any dose level): no relevant changes
Time of FSH return / decline towards baseline (serum LH and FSH; single dose 0.001 to 6 mg): ≤ 72 h
Time of LH return to baseline (serum LH and FSH; single dose 0.001 to 6 mg): ≤ 72 h
AUC(0-t) ([2]; IV 1 mg/kg): 3090 ng·h/mL
half-life [2, 5]: 3 h
Cmax ([2]; SC 0.1 mg/kg, mean ± SD (n = 4)): 86.6 ng/mL
AUC(0-t) ([2]; SC 0.1 mg/kg): 252 ng·h/mL
bioavailability ([2]; SC 0.1 mg/kg): 81.5%
AUC(0-t) ([2]; SC 1 mg/kg): 2600 ng·h/mL
bioavailability ([2]; SC 1 mg/kg): 84%
Cmax ([2]; SC 1 mg/kg): 883 ng/mL
AUC(0-t) ([2]; SC 10 mg/kg): 28600 ng·h/mL
bioavailability ([2]; SC 10 mg/kg): 92.7%
Cmax ([2]; SC 10 mg/kg): 8840 ng/mL
Tmax [2, 6]: 0.8 to 1 h
Cmax at 5 min [2, 7]: 4250 ng/mL
EC50 (rat KISS1R): 0.632 nM
Ratio of EC50 of API-MA to kisspeptin (45-54) (rat KISS1R; rat KISS1R): 2.0
CL/F [3, 8]: 13.4 L/h
λz [3, 8]: 0.200 h⁻¹
CL/F [3, 9]: 12.6 L/h
λz [3, 9]: 0.198 h⁻¹
CL/F [3, 10]: 13.6 L/h
λz [3, 10]: 0.221 h⁻¹
CL/F [3, 11]: 13.4 L/h
λz [3, 11]: 0.205 h⁻¹
half-life ([3]; days 1 and 14, both doses (0.5 and 1.0 mg/day), read-out: Mean T1/2): 3 to 4 h
Cmax [3, 12]: 8.12 ng/mL
Tmax [3, 12]: 2.11 h
AUC [3, 12]: 36.5 ng·h/mL
half-life ([3]; sc, 0.5 mg/day, Japanese prostate cancer patients, 2-hour SC infusion 0.5 mg/day, Day 1, mean, read-out: T1/2 (converted)): 3.48 h
Vd/F [3, 12]: 66.9 L
Cmax [3, 13]: 8.13 ng/mL
Tmax [3, 13]: 2.08 h
AUC [3, 13]: 39.1 ng·h/mL
half-life ([3]; sc, 0.5 mg/day, Japanese prostate cancer patients, 2-hour SC infusion 0.5 mg/day, Day 14, mean, read-out: T1/2 (converted)): 3.5 h
Vd/F [3, 13]: 63.5 L
Cmax [3, 14]: 16 ng/mL
Tmax [3, 14]: 2.11 h
AUC [3, 14]: 70.2 ng·h/mL
half-life ([3]; sc, 1 mg/day, Japanese prostate cancer patients, 2-hour SC infusion 1.0 mg/day, Day 1, mean, read-out: T1/2 (converted)): 3.15 h
Vd/F [3, 14]: 61.6 L
Cmax [3, 15]: 15.5 ng/mL
Tmax [3, 15]: 2.11 h
AUC [3, 15]: 71.2 ng·h/mL
half-life ([3]; sc, 1 mg/day, Japanese prostate cancer patients, 2-hour SC infusion 1.0 mg/day, Day 14, mean, read-out: T1/2 (converted)): 3.38 h
Vd/F [3, 15]: 65.7 L
AUC(0-inf) ([3]; 0.5 mg/day, Day 1, mean): 36.8 ng·h/mL
MRT ([3]; 0.5 mg/day, Day 1, mean): 4.78 h
AUC(0-inf) ([3]; 1.0 mg/day, Day 1, mean): 70.6 ng·h/mL
MRT ([3]; 1.0 mg/day, Day 1, mean): 4.64 h
AUC(0-t) ([4]; iv, 0.01 mg/kg, IV 0.01 mg/kg, PK linearity study): 14 ng·h/mL
AUC(0-t) ([4]; iv, 0.1 mg/kg, IV 0.1 mg/kg, PK linearity study): 140 ng·h/mL
AUC(0-t) ([4]; iv, 1 mg/kg, IV 1 mg/kg, PK linearity study): 1390 ng·h/mL
AUC(0-t) ([4]; iv, 1 mg/kg, IV 1 mg/kg): 1460 ng·h/mL
AUC(0-t) ([4]; sc, 1 mg/kg, SC 1 mg/kg, mean ± SD (n = 5)): 804 ng·h/mL
AUC(0-t) ([4]; sc, 10 mg/kg, SC 10 mg/kg, mean ± SD (n = 5)): 309 ng·h/mL
level at 5 min ([4]; IV 0.01 mg/kg, PK linearity study): 24.1 ng/mL
half-life ([4]; IV 0.01 mg/kg, PK linearity study, read-out: Elimination T1/2 (converted)): 0.4 h
level at 5 min ([4]; IV 0.1 mg/kg, PK linearity study): 250 ng/mL
half-life ([4]; IV 0.1 mg/kg, PK linearity study, read-out: Elimination T1/2 (converted)): 0.4 h
level at 5 min ([4]; IV 1 mg/kg, PK linearity study): 2580 ng/mL
Cmax at 5 min ([4]; IV 1 mg/kg, plasma concentration at 5 minutes, read-out: Cmax (C5 min)): 2670 ng/mL
half-life ([4]; IV 1 mg/kg, read-out: T1/2 alpha phase (converted)): 0.5 h
Cmax ([4]; SC 1 mg/kg, mean ± SD (n = 5)): 381 ng/mL
bioavailability ([4]; SC 1 mg/kg, read-out: BA (bioavailability)): 55.3%
Cmax ([4]; SC 10 mg/kg, mean ± SD (n = 5)): 285 ng/mL
Tmax ([4]; SC, read-out: Tmax, range over all tested SC doses): 0.3 to 0.9 h
